Test results: patent US20070049564A1 (Wyeth, priority 2005, published 2007)
≈ marks a conversion by molar mass, not a printed value. Read-outs that look alike come from different tables or passages of the source.

Tests used:
Experiment in all cases: MIC, broth microdilution
[1] = tested on: E. coli GC 2231; conditions: Escherichia coli
[2] = tested on: E. coli GC 2232; conditions: Escherichia coli
[3] = tested on: E. coli GC 2234; conditions: Escherichia coli
[4] = tested on: E. coli GC 2272; conditions: Escherichia coli
[5] = tested on: E. coli GC 4559; conditions: Escherichia coli
[6] = tested on: E. coli GC 4560; conditions: Escherichia coli
[7] = tested on: E. coli GC 6465; conditions: Escherichia coli
[8] = tested on: E. coli GC 2203; conditions: Escherichia coli
[9] = tested on: P. aeruginosa GC 2214; conditions: Pseudomonas aeruginosa
[10] = tested on: S. aureus GC 1131; conditions: Staphylococcus aureus
[11] = tested on: S. aureus GC 6466; conditions: Staphylococcus aureus
[12] = tested on: S. aureus GC 6467; conditions: Staphylococcus aureus
[13] = tested on: S. aureus GC 4536; conditions: Staphylococcus aureus
[14] = tested on: S. aureus GC 2216; conditions: Staphylococcus aureus
[15] = tested on: S. epidermidis GC 4935; conditions: Staphylococcus epidermidis
[16] = tested on: E. faecalis GC 2267; conditions: Enterococcus faecalis
[17] = tested on: E. faecalis GC 2242; conditions: Enterococcus faecalis
[18] = tested on: S. pneumoniae* GC 4465; conditions: Streptococcus pneumoniae
[19] = tested on: S. pneumoniae+ GC 4465; conditions: Streptococcus pneumoniae
[20] = read-out: MINIMAL INHIBITORY CONCENTRATION MIC, Human Serum
[21] = read-out: MINIMAL INHIBITORY CONCENTRATION MIC, Mouse Serum
[22] = read-out: MINIMAL INHIBITORY CONCENTRATION MIC, Water

## Cc1cc(C)cc(C(=O)OCOC(=O)N(CC(=O)Nc2cc(N(C)C)c3c(c2O)C(=O)C2=C(O)[C@]4(O)C(=O)C(C(N)=O)=C(O)[C@@H](N(C)C)[C@@H]4C[C@@H]2C3)C(C)(C)C)c1 [Example 51]
[1]; GC2231, read-out: MINIMAL INHIBITORY CONCENTRATION MIC, Human Serum
  MIC: 32 µg/mL (≈ 40.4 µM)
[1]; GC2231, read-out: MINIMAL INHIBITORY CONCENTRATION MIC, Mouse Serum
  MIC: 2 µg/mL (≈ 2.53 µM)
[1]; GC2231, read-out: MINIMAL INHIBITORY CONCENTRATION MIC, Water
  MIC: > 64 µg/mL
[2]; GC2232, read-out: MINIMAL INHIBITORY CONCENTRATION MIC, Human Serum
  MIC: 32 µg/mL (≈ 40.4 µM)
[2]; GC2232, read-out: MINIMAL INHIBITORY CONCENTRATION MIC, Mouse Serum
  MIC: 2 µg/mL (≈ 2.53 µM)
[2]; GC2232, read-out: MINIMAL INHIBITORY CONCENTRATION MIC, Water
  MIC: > 64 µg/mL
[3]; GC2234, read-out: MINIMAL INHIBITORY CONCENTRATION MIC, Human Serum
  MIC: 32 µg/mL (≈ 40.4 µM)
[3]; GC2234, read-out: MINIMAL INHIBITORY CONCENTRATION MIC, Mouse Serum
  MIC: 1 µg/mL (≈ 1.26 µM)
[3]; GC2234, read-out: MINIMAL INHIBITORY CONCENTRATION MIC, Water
  MIC: > 64 µg/mL
[4]; GC2272, read-out: MINIMAL INHIBITORY CONCENTRATION MIC, Human Serum
  MIC: 32 µg/mL (≈ 40.4 µM)
[4]; GC2272, read-out: MINIMAL INHIBITORY CONCENTRATION MIC, Mouse Serum
  MIC: 2 µg/mL (≈ 2.53 µM)
[4]; GC2272, read-out: MINIMAL INHIBITORY CONCENTRATION MIC, Water
  MIC: > 64 µg/mL
[5]; GC4559, read-out: MINIMAL INHIBITORY CONCENTRATION MIC, Human Serum
  MIC: 32 µg/mL (≈ 40.4 µM)
[5]; GC4559, read-out: MINIMAL INHIBITORY CONCENTRATION MIC, Mouse Serum
  MIC: 2 µg/mL (≈ 2.53 µM)
[5]; GC4559, read-out: MINIMAL INHIBITORY CONCENTRATION MIC, Water
  MIC: > 64 µg/mL
[6]; GC4560, read-out: MINIMAL INHIBITORY CONCENTRATION MIC, Human Serum
  MIC: 8 µg/mL (≈ 10.1 µM)
[6]; GC4560, read-out: MINIMAL INHIBITORY CONCENTRATION MIC, Mouse Serum
  MIC: 1 µg/mL (≈ 1.26 µM)
[6]; GC4560, read-out: MINIMAL INHIBITORY CONCENTRATION MIC, Water
  MIC: 32 µg/mL (≈ 40.4 µM)
[7]; GC6465, read-out: MINIMAL INHIBITORY CONCENTRATION MIC, Human Serum
  MIC: 32 µg/mL (≈ 40.4 µM)
[7]; GC6465, read-out: MINIMAL INHIBITORY CONCENTRATION MIC, Mouse Serum
  MIC: 4 µg/mL (≈ 5.05 µM)
[7]; GC6465, read-out: MINIMAL INHIBITORY CONCENTRATION MIC, Water
  MIC: > 64 µg/mL
[8]; GC2203, read-out: MINIMAL INHIBITORY CONCENTRATION MIC, Human Serum
  MIC: 32 µg/mL (≈ 40.4 µM)
[8]; GC2203, read-out: MINIMAL INHIBITORY CONCENTRATION MIC, Mouse Serum
  MIC: 2 µg/mL (≈ 2.53 µM)
[8]; GC2203, read-out: MINIMAL INHIBITORY CONCENTRATION MIC, Water
  MIC: > 64 µg/mL
[9]; GC2214, read-out: MINIMAL INHIBITORY CONCENTRATION MIC, Human Serum
  MIC: > 64 µg/mL
[9]; GC2214, read-out: MINIMAL INHIBITORY CONCENTRATION MIC, Mouse Serum
  MIC: 64 µg/mL (≈ 80.8 µM)
[9]; GC2214, read-out: MINIMAL INHIBITORY CONCENTRATION MIC, Water
  MIC: > 64 µg/mL
[10]; GC1131, read-out: MINIMAL INHIBITORY CONCENTRATION MIC, Human Serum
  MIC: 0.5 µg/mL (≈ 0.631 µM)
[10]; GC1131, read-out: MINIMAL INHIBITORY CONCENTRATION MIC, Mouse Serum
  MIC: 0.5 µg/mL (≈ 0.631 µM)
[10]; GC1131, read-out: MINIMAL INHIBITORY CONCENTRATION MIC, Water
  MIC: 1 µg/mL (≈ 1.26 µM)
[11]; GC6466, read-out: MINIMAL INHIBITORY CONCENTRATION MIC, Human Serum
  MIC: 0.25 µg/mL (≈ 0.316 µM)
[11]; GC6466, read-out: MINIMAL INHIBITORY CONCENTRATION MIC, Mouse Serum
  MIC: 0.25 µg/mL (≈ 0.316 µM)
[11]; GC6466, read-out: MINIMAL INHIBITORY CONCENTRATION MIC, Water
  MIC: 1 µg/mL (≈ 1.26 µM)
[12]; GC6467, read-out: MINIMAL INHIBITORY CONCENTRATION MIC, Human Serum
  MIC: 1 µg/mL (≈ 1.26 µM)
[12]; GC6467, read-out: MINIMAL INHIBITORY CONCENTRATION MIC, Mouse Serum
  MIC: 0.5 µg/mL (≈ 0.631 µM)
[12]; GC6467, read-out: MINIMAL INHIBITORY CONCENTRATION MIC, Water
  MIC: 2 µg/mL (≈ 2.53 µM)
[13]; GC4536, read-out: MINIMAL INHIBITORY CONCENTRATION MIC, Human Serum
  MIC: 0.5 µg/mL (≈ 0.631 µM)
[13]; GC4536, read-out: MINIMAL INHIBITORY CONCENTRATION MIC, Mouse Serum
  MIC: 0.5 µg/mL (≈ 0.631 µM)
[13]; GC4536, read-out: MINIMAL INHIBITORY CONCENTRATION MIC, Water
  MIC: 1 µg/mL (≈ 1.26 µM)
[14]; GC2216, read-out: MINIMAL INHIBITORY CONCENTRATION MIC, Human Serum
  MIC: 0.5 µg/mL (≈ 0.631 µM)
[14]; GC2216, read-out: MINIMAL INHIBITORY CONCENTRATION MIC, Mouse Serum
  MIC: 0.5 µg/mL (≈ 0.631 µM)
[14]; GC2216, read-out: MINIMAL INHIBITORY CONCENTRATION MIC, Water
  MIC: 1 µg/mL (≈ 1.26 µM)
[15]; GC4935, read-out: MINIMAL INHIBITORY CONCENTRATION MIC, Human Serum
  MIC: 2 µg/mL (≈ 2.53 µM)
[15]; GC4935, read-out: MINIMAL INHIBITORY CONCENTRATION MIC, Mouse Serum
  MIC: 2 µg/mL (≈ 2.53 µM)
[15]; GC4935, read-out: MINIMAL INHIBITORY CONCENTRATION MIC, Water
  MIC: 4 µg/mL (≈ 5.05 µM)
[16]; GC2267, read-out: MINIMAL INHIBITORY CONCENTRATION MIC, Human Serum
  MIC: 4 µg/mL (≈ 5.05 µM)
[16]; GC2267, read-out: MINIMAL INHIBITORY CONCENTRATION MIC, Mouse Serum
  MIC: 2 µg/mL (≈ 2.53 µM)
[16]; GC2267, read-out: MINIMAL INHIBITORY CONCENTRATION MIC, Water
  MIC: 16 µg/mL (≈ 20.2 µM)
[17]; GC2242, read-out: MINIMAL INHIBITORY CONCENTRATION MIC, Human Serum
  MIC: 4 µg/mL (≈ 5.05 µM)
[17]; GC2242, read-out: MINIMAL INHIBITORY CONCENTRATION MIC, Mouse Serum
  MIC: 2 µg/mL (≈ 2.53 µM)
[17]; GC2242, read-out: MINIMAL INHIBITORY CONCENTRATION MIC, Water
  MIC: 8 µg/mL (≈ 10.1 µM)
[18]; [20]
  MIC: 2 µg/mL (≈ 2.53 µM)
[18]; [21]
  MIC: 0.5 µg/mL (≈ 0.631 µM)
[18]; [22]
  MIC: 1 µg/mL (≈ 1.26 µM)
[19]; [20]
  MIC: 2 µg/mL (≈ 2.53 µM)
[19]; [21]
  MIC: 1 µg/mL (≈ 1.26 µM)
[19]; [22]
  MIC: 1 µg/mL (≈ 1.26 µM)
